Values joined by “and” are separate entries in the source; they are usually repeats but may differ in a detail not shown here. Equal entries are not always repeated.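 96-well plates; 48 h exposure; 5 concentrations. Endpoints by linear interpolation between flanking doses. Not reached: highest tested concentration assigned. GI50 is the concentration that inhibits growth by half. At the TGI there is no net growth.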
What follows are compounds tested on UACC-62 melanoma (assay: NCI tumour cell line growth inhibition, 48 h).

SMILES	TGI	GI50
CC(=O)OCc1ccc2c(c1)C(O)NC(=O)O2 (configuration not stated)	> 100 µM	–
CC1(C)CC(c2c[nH]c3ccccc23)=CC2=Nc3ccccc3C21O (configuration not stated)	> 100 µM	–
O=C(Nc1nn2c(-c3cc(C(F)(F)F)cc(C(F)(F)F)c3)nnc2s1)C1CCCC1	–	0.253 µM
COC(=O)[C@]12CC[C@@H](C)[C@H](C)[C@@H]1C1=CC[C@@H]3[C@@]4(C)C[C@@H](O)[C@H](O)[C@@](C)(CO)[C@@H]4[C@H](O)C[C@@]3(C)[C@]1(C)CC2	23.6 µM	10.1 µM
COc1ccc(CN2C(=O)C(Cl)=C(Nc3cccc(C(F)(F)F)c3)C2=O)cc1	19.1 µM	5.33 µM
COCCn1cc(-c2nc(-c3cc4cccnc4[nH]3)cs2)c2cc(OC)ccc21	31.3 µM	4.22 µM
O=[N+]([O-])c1cc([N+](=O)[O-])c(C(F)(F)F)cc1NN=C(c1ccc(O)cc1)c1ccc(O)cc1	4.6 µM	2.07 µM
c1ccc(Nc2ncc(-c3ccccc3)o2)cc1	> 25 µM	> 25 µM
COc1c2ccccc2c(OC)c2[nH]c(=O)ccc12	3.33 µM	1.65 µM
O=C(O)C(Cl)Cl	> 10000 µM	6710 µM and > 10000 µM
NC(=S)N/N=C\c1nccc2c(C(F)(F)F)cccc12	1.15 µM	0.283 µM
CC(=O)N[C@@H](Cc1ccc(OP(=O)(O)O)cc1)C(=O)N[C@H]1CCC(=O)N2CCC[C@@H](C(=O)Nc3cccc4ccccc34)N2C1=O	> 25 µM	> 25 µM
O=C(/C=C/c1c(O)ccc2ccccc12)c1ccc([N+](=O)[O-])cc1	33.3 µM	–

Each compound was assayed on MALME-3M melanoma (assay: NCI tumour cell line growth inhibition, 48 h).

SMILES	TGI	GI50
CN(C)c1ccc(/C=N/NC(=S)Nc2ccccc2)cc1	> 100 µM	–
COc1ccc2ncnc(Nc3ccc(OCc4ccccc4)cc3)c2c1	> 25 µM	10.1 µM
O=C1c2c(F)c(F)c(F)c(F)c2C(=O)N1c1ccc(F)cc1F	33.9 µM	13.4 µM
O=C1C(C(Nc2ccccc2)c2ccccc2)=C([O-])c2ccccc21.O=C1C(C(Nc2ccccc2)c2ccccc2)=C([O-])c2ccccc21.[Cu+2] (configuration not stated)	> 100 µM	65.8 µM
OC(c1cc(C(F)(F)F)nc2c(C(F)(F)F)cccc12)C1CCCCN1 (configuration not stated)	7.36 µM	2.6 µM
C/C=C/[C@@H]1O[C@@H]2COC(=O)C2=C[C@@H]1O	6.85 µM	1.96 µM
COC(=O)/C=C/c1cc(OC(C)=O)c2c(c1)[C@@H](C(=O)OC)[C@H](c1ccc(OC(C)=O)c(OC(C)=O)c1)O2	48.7 µM	0.0512 µM
Nc1nc2[nH]cc(CCc3ccc(C(=O)N[C@@H](CCC(=O)O)C(=O)O)cc3)c2c(=O)[nH]1	> 100 µM	–
CCC(C)SC1SCC2C(=O)N(C)C3(CC3C)C(=O)OCC(NC(=O)c3nc4ccccc4cc3O)C(=O)NC(C)C(=O)N(C)C1C(=O)N(C)C1(CC1C)C(=O)OCC(NC(=O)c1nc3ccccc3cc1O)C(=O)NC(C)C(=O)N2C (configuration not stated)	0.000422 µM	–
CN1CCN(C(=O)COc2ccc(C34CC5CC(CC(C5)C3)C4)cc2)CC1	22.3 µM	7.64 µM
Cc1[cH-]c(=O)n(-c2ccccc2)n1.[Au+].[Au].c1ccc([PH+](c2ccccc2)c2ccccc2)cc1.c1ccc([PH+](c2ccccc2)c2ccccc2)cc1	31.1 µM	9.61 µM
COc1ccccc1NC(=O)c1cc2cc(Br)ccc2cc1O	4.87 µM	1.39 µM
CC(=O)OCc1ccc2c(c1)C(O)NC(=O)O2 (configuration not stated)	> 100 µM	–
CC1(C)CC(c2c[nH]c3ccccc23)=CC2=Nc3ccccc3C21O (configuration not stated)	> 100 µM	–
O=C(Nc1nn2c(-c3cc(C(F)(F)F)cc(C(F)(F)F)c3)nnc2s1)C1CCCC1	2.93 µM	0.27 µM
COC(=O)[C@]12CC[C@@H](C)[C@H](C)[C@@H]1C1=CC[C@@H]3[C@@]4(C)C[C@@H](O)[C@H](O)[C@@](C)(CO)[C@@H]4[C@H](O)C[C@@]3(C)[C@]1(C)CC2	32 µM	13 µM
COc1ccc(CN2C(=O)C(Cl)=C(Nc3cccc(C(F)(F)F)c3)C2=O)cc1	22.7 µM	2.99 µM
COCCn1cc(-c2nc(-c3cc4cccnc4[nH]3)cs2)c2cc(OC)ccc21	> 80.6 µM	7.99 µM
O=[N+]([O-])c1cc([N+](=O)[O-])c(C(F)(F)F)cc1NN=C(c1ccc(O)cc1)c1ccc(O)cc1	35.1 µM	4.72 µM
c1ccc(Nc2ncc(-c3ccccc3)o2)cc1	> 25 µM	> 25 µM
COc1c2ccccc2c(OC)c2[nH]c(=O)ccc12	1.78 µM	0.578 µM
O=C(O)C(Cl)Cl	> 10000 µM	2500 µM and > 10000 µM
NC(=S)N/N=C\c1nccc2c(C(F)(F)F)cccc12	> 34.5 µM	0.435 µM
CC(=O)N[C@@H](Cc1ccc(OP(=O)(O)O)cc1)C(=O)N[C@H]1CCC(=O)N2CCC[C@@H](C(=O)Nc3cccc4ccccc34)N2C1=O	> 25 µM	> 25 µM
O=C(/C=C/c1c(O)ccc2ccccc12)c1ccc([N+](=O)[O-])cc1	49.7 µM	–

The compounds below were run on HT29 colon (assay: NCI tumour cell line growth inhibition, 48 h).

SMILES	TGI	GI50
CN(C)c1ccc(/C=N/NC(=S)Nc2ccccc2)cc1	> 100 µM	–
COc1ccc2ncnc(Nc3ccc(OCc4ccccc4)cc3)c2c1	> 25 µM	6.54 µM
O=C1c2c(F)c(F)c(F)c(F)c2C(=O)N1c1ccc(F)cc1F	> 100 µM	7.36 µM
O=C1C(C(Nc2ccccc2)c2ccccc2)=C([O-])c2ccccc21.O=C1C(C(Nc2ccccc2)c2ccccc2)=C([O-])c2ccccc21.[Cu+2] (configuration not stated)	> 100 µM	33.1 µM
OC(c1cc(C(F)(F)F)nc2c(C(F)(F)F)cccc12)C1CCCCN1 (configuration not stated)	3.92 µM	1.99 µM
C/C=C/[C@@H]1O[C@@H]2COC(=O)C2=C[C@@H]1O	46 µM	5.73 µM
COC(=O)/C=C/c1cc(OC(C)=O)c2c(c1)[C@@H](C(=O)OC)[C@H](c1ccc(OC(C)=O)c(OC(C)=O)c1)O2	> 58.7 µM	1.68 µM
Nc1nc2[nH]cc(CCc3ccc(C(=O)N[C@@H](CCC(=O)O)C(=O)O)cc3)c2c(=O)[nH]1	> 100 µM	35 µM
CCC(C)SC1SCC2C(=O)N(C)C3(CC3C)C(=O)OCC(NC(=O)c3nc4ccccc4cc3O)C(=O)NC(C)C(=O)N(C)C1C(=O)N(C)C1(CC1C)C(=O)OCC(NC(=O)c1nc3ccccc3cc1O)C(=O)NC(C)C(=O)N2C (configuration not stated)	0.00788 µM	1.48e-05 µM
CN1CCN(C(=O)COc2ccc(C34CC5CC(CC(C5)C3)C4)cc2)CC1	19.1 µM	4.66 µM
Cc1[cH-]c(=O)n(-c2ccccc2)n1.[Au+].[Au].c1ccc([PH+](c2ccccc2)c2ccccc2)cc1.c1ccc([PH+](c2ccccc2)c2ccccc2)cc1	> 100 µM	53.5 µM
COc1ccccc1NC(=O)c1cc2cc(Br)ccc2cc1O	21.5 µM	7.73 µM
CC(=O)OCc1ccc2c(c1)C(O)NC(=O)O2 (configuration not stated)	> 100 µM	–
CC1(C)CC(c2c[nH]c3ccccc23)=CC2=Nc3ccccc3C21O (configuration not stated)	> 100 µM	–
O=C(Nc1nn2c(-c3cc(C(F)(F)F)cc(C(F)(F)F)c3)nnc2s1)C1CCCC1	> 32.5 µM	1.11 µM
COC(=O)[C@]12CC[C@@H](C)[C@H](C)[C@@H]1C1=CC[C@@H]3[C@@]4(C)C[C@@H](O)[C@H](O)[C@@](C)(CO)[C@@H]4[C@H](O)C[C@@]3(C)[C@]1(C)CC2	36.3 µM	17.1 µM
COc1ccc(CN2C(=O)C(Cl)=C(Nc3cccc(C(F)(F)F)c3)C2=O)cc1	19.7 µM	4.55 µM
COCCn1cc(-c2nc(-c3cc4cccnc4[nH]3)cs2)c2cc(OC)ccc21	> 81.2 µM	3.71 µM
O=[N+]([O-])c1cc([N+](=O)[O-])c(C(F)(F)F)cc1NN=C(c1ccc(O)cc1)c1ccc(O)cc1	12.1 µM	3.33 µM
c1ccc(Nc2ncc(-c3ccccc3)o2)cc1	> 25 µM	> 25 µM
COc1c2ccccc2c(OC)c2[nH]c(=O)ccc12	> 57 µM	4.66 µM
O=C(O)C(Cl)Cl	> 10000 µM	7200 µM and > 10000 µM
NC(=S)N/N=C\c1nccc2c(C(F)(F)F)cccc12	16.5 µM	0.524 µM
CC(=O)N[C@@H](Cc1ccc(OP(=O)(O)O)cc1)C(=O)N[C@H]1CCC(=O)N2CCC[C@@H](C(=O)Nc3cccc4ccccc34)N2C1=O	> 25 µM	> 25 µM
O=C(/C=C/c1c(O)ccc2ccccc12)c1ccc([N+](=O)[O-])cc1	> 100 µM	–
